# According to patent publication US4594358A, “Analgesic method” (Eli Lilly and Company, priority 1985, dated 1986):
# Where a name gives a salt, the structure may show the parent alone. Read-outs that look alike come from different tables or passages of the source.
# Columns and labels:
# [1] = tested on: mouse writhing; assay: mouse writhing assay (acetic acid induced); format: in vivo, mouse (albino male mice); settings: for Percent Inhibition of Writhing: Table 4, dextropropoxyphene napsylate 40 mg/kg + saline p.o.; for ability to potentiate analgesic effect of dextropropoxyphene (in words): mouse, in vivo
# From the text: Writhing, which is characterized by contraction of the abdominal musculature, extension of the hindlegs, and rotation of the trunk, was induced in albino male mice. The extent to which writhing is reduced following administration of a test compound is an indication of the analgesic activity of that compound.
# Mice, weighing 18-24 grams, were fasted overnight and given the test compounds by gavage or subcutaneously. Writhing was then induced by the intraperitoneal administration of acetic acid (0.55 to 0.60 percent). Each treatment group consisted of five mice. The total number of writhes for the treatment group was determined during a 10-minute observation period starting five minutes after acetic acid administration.
# [2] = administered alone (U.S. Pat. No. 4,035,511) or with morphine (U.S. Pat. No. 4,083,982); cited from earlier work
# [3] = tested on: monoamine uptake, especially serotonin; settings: U.S. Pat. No. 4,313,896; cited from earlier work
smiles,measurement,setting,value
CCC(=O)O[C@](Cc1ccccc1)(c1ccccc1)[C@H](C)CN(C)C [Dextropropoxyphene Napsylate],ED50,"[1]; Mus musculus, po, 0.5 h, Table 3, saline pretreatment p.o. three hours prior, dextropropoxyphene napsylate p.o. 30 minutes prior to assessment, read-out: Inhibition of Mouse Writhing ED50",44.2 mg/kg
same,ED50,"[1]; Mus musculus, po, 1 h, read-out: Inhibition of Mouse Writhing ED50",49.3 mg/kg
same,inhibition at 10 mg/kg,"[1]; Mus musculus, po, 1 h, read-out: Percent Inhibition of Mouse Writhing",0%
same,ED50,"[1]; Mus musculus, sc, 0.5 h, read-out: Induced Inhibition of Mouse Writhing ED50",9.95 mg/kg
same,Percent Inhibition of Writhing,[1]; 30 minutes after administration,40%
same,Percent Inhibition of Writhing,[1]; 60 minutes after administration,6%
same,Percent Inhibition of Writhing,[1]; 70 minutes after administration,10%
same,Percent Inhibition of Writhing,[1]; 120 minutes after administration,28%
same,Percent Inhibition of Writhing,[1]; 180 minutes after administration,5%
same,inhibition of mouse writhing (in words),"[1]; dextropropoxyphene napsylate 10 mg/kg p.o. alone, 60 minutes prior to assessment",no inhibition of the writhing
same,ED50 of dextropropoxyphene napsylate alone relative to that with fluoxetine hydrochloride,"[1]; s.c., 30 minutes, 20 mg/kg fluoxetine hydrochloride s.c. concomitantly",twice the amount needed
CNCCC(Oc1ccc(C(F)(F)F)cc1)c1ccccc1 (stereo not shown) [Fluoxetine Hydrochloride],analgesic activity in mouse writhing test,"[1]; fluoxetine hydrochloride alone, doses up to 160 mg/kg, 30-180 minutes before writhing was induced",devoid of analgesic activity
"CNCCC(Oc1ccc(C(F)(F)F)cc1)c1ccccc1 (stereo not shown) [Fluoxetine, 3-(4-trifluoromethylphenoxy)-N-methyl-3-phenylpropylamine]",ability to potentiate analgesic effect of dextropropoxyphene (in words),[1],potentiate the analgesic effect of dextropropoxyphene
same,analgesic properties (in words),[2],possess analgesic properties
"NCCC(Oc1ccc(C(F)(F)F)cc1)c1ccccc1 (stereo not shown) [Norfluoxetine, 3-(4-trifluoromethylphenoxy)-3-phenylpropylamine]",ability to potentiate analgesic effect of dextropropoxyphene (in words),[1],potentiate the analgesic effect of dextropropoxyphene
same,monoamine uptake blockade (in words),[3],"block monoamine uptake, especially serotonin"
